Counter-ions that a name gives are not always drawn.
Columns and labels:
serotonin 1A receptor = molecular target: T1, serotonin 1A receptor (Rattus norvegicus, UniProt P19327); test: Binding test on [3H] 8-hydroxy-dipropylaminotetralin (serotonin 1A receptor); details: [3H] 8-OH-DPAT 0.5 nM, receptor fraction of rat hippocampus; read-out: 5HT1a
T1 construct: To the receptor fraction of the hippocampus were added a test compound and 0.5 nM of [^3H]; 8-hydroxy-dipropylaminotetralin; from tissue; host or cells: SD rat hippocampus, membrane (receptor) fraction
T1 sequence (P19327 1-422): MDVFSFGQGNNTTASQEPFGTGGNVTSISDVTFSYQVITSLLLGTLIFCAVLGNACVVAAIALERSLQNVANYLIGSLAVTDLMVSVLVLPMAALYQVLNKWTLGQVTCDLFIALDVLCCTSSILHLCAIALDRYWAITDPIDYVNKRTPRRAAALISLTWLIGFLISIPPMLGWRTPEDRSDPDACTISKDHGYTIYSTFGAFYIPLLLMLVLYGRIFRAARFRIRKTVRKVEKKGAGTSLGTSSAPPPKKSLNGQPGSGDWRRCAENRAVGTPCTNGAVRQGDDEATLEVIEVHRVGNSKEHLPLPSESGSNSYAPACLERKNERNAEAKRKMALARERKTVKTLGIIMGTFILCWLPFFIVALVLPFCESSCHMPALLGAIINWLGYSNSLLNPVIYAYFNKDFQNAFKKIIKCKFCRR

serotonin 2 receptor = serotonin 2 receptor (Rattus norvegicus, UniProt P14842); test: Binding test on [3H] ketanserin (serotonin 2 receptor); details: [3H] ketanserin 0.3 nM, receptor fraction of rat cerebral cortex; read-out: 5HT2
Chain of serotonin 2 receptor (P14842 whole entry): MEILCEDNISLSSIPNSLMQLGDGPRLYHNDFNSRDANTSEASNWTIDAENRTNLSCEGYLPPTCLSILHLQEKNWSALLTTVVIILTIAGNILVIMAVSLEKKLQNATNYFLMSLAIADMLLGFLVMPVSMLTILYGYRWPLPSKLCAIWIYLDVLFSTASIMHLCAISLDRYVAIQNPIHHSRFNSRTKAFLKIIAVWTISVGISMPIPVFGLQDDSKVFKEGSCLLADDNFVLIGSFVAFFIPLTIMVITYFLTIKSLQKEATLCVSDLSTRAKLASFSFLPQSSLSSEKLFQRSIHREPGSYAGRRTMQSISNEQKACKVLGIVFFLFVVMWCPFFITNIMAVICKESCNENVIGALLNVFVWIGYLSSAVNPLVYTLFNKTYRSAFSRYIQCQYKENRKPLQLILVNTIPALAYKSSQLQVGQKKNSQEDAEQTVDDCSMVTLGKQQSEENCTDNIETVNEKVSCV

Row | SMILES | Ki (serotonin 1A receptor) | Ki (serotonin 2 receptor)
1 | CCN1CCC(N2CC(Cc3ccc(F)cc3)c3ccccc32)CC1 (centres unmarked) [Example 244, 1-(1-ethylpiperidin-4-yl)-3-(4-fluorobenzyl)indoline] | > 200 nM | 2.5 nM
2 | CC(=O)Nc1ccc(CCN2CCC(N3CCc4ccccc43)CC2)cc1 [Example 32, 1-[1-(4-acetamidophenethyl)piperidin-4-yl]indoline] | 30.2 nM | 30.2 nM
3 | COc1ccc(CCN2CCC(N3CCc4ccccc43)CC2)s1 [Example 64] | 14.8 nM | 14.2 nM
4 | NC(=O)Cc1ccc2c(c1)N(C1CCN(CCc3ccc(F)cc3F)CC1)CC2 [Example 225, 1-[1-(2,4-difluorophenethyl)piperidin-4-yl]-6-carbamoylmethylindoline] | 5.74 nM | 7.61 nM
5 | c1ccc2c(c1)CCN2C1CCN(CCc2ccncc2)CC1 [Example 49, 1-{1-[2-(4-pyridyl)ethyl]piperidin-4-yl}indoline] | 54.5 nM | 29.9 nM
6 | Fc1ccc(CCN2CCC(N3CCc4ccc(Cn5cncn5)cc43)CC2)cc1 [Example 213, 1-[1-(4-fluorophenethyl)piperidin-4-yl]-6-(1,2,4-triazol-2-yl)methylindoline] | 1.03 nM | 0.18 nM
7 | CCC(=O)NCc1ccc(CCN2CCC(N3CCc4ccccc43)CC2)cc1 [Example 39] | 1.6 nM | 8.9 nM
8 | CCN1CCC(Cc2ccc3c(c2)N(C2CCN(CCc4ccc(F)cc4)CC2)CC3)CC1 [Example 169, 1-[1-(4-fluorophenethyl)piperidin-4-yl]-6-[(1-ethylpiperidin-4-yl)methyl]indoline] | 16.4 nM | 13.8 nM
9 | COc1ccc(CCN2CCC(N3CCc4ccccc43)CC2)cc1 [Example 18, 1-[1-(4-methoxyphenethyl)piperidin-4-yl]indoline] | 0.13 nM | 0.12 nM
10 | OCc1ccc(CCN2CCC(N3CCc4ccccc43)CC2)cc1CO [Example 45, 1-{1-[3,4-di(hydroxymethyl)phenethyl]piperidin-4-yl}indoline] | 15.2 nM | 6.4 nM
11 | CCCS(=O)(=O)Nc1ccc2c(c1)N(C1CCN(CCc3ccc(F)cc3)CC1)CC2 [Example 118, 1-[1-(4-fluorophenethyl)piperidin-4-yl]-6-propanesulfonylaminoindoline] | 0.7 nM | 10.4 nM
12 | OC(c1ccc(Cl)nc1)c1ccc2c(c1)N(C1CCN(CCc3ccc(F)cc3)CC1)CC2 (centres unmarked) [Example 192, 1-[1-(4-fluorophenethyl)piperidin-4-yl]-6-[1-hydroxy-1-(2-chloropyridin-5-yl)methyl]indoline] | 1.02 nM | 2.9 nM
13 | CCN1CCC(N2CC(c3ccc(OC)cc3)c3ccccc32)CC1 (centres unmarked) [Example 241, 1-(1-ethylpiperidin-4-yl)-3-(4-methoxyphenyl)indoline] | 360 nM | 1660 nM
14 | O=C1CSC(=O)N1Cc1ccc2c(c1)N(C1CCN(CCc3ccc(F)cc3)CC1)CC2 [Example 209, 1-[1-(4-fluorophenethyl)piperidin-4-yl]-6-(2,4-thiazolidinedion-3-yl)methylindoline] | 6.98 nM | 4.72 nM
15 | CC(=O)NCc1ccc2ccn(C3CCN(CCc4ccc(F)cc4F)CC3)c2c1 [Example 357, 1-[1-(2,4-difluorophenethyl)piperidin-4-yl]-6-acetamidomethylindole] | 0.38 nM | 1.3 nM
16 | OCCc1ccc(CCN2CCC(N3CCc4ccccc43)CC2)cc1 [Example 24, 1-{1-[4-(2-hydroxyethyl)phenethyl]piperidin-4-yl}indoline] | 26.5 nM | 174 nM
17 | OCc1ccc(CCN2CCC(N3CCc4ccccc43)CC2)cn1 [Example 55, 1-{1-[2-(2-hydroxymethylpyridin5-yl)ethyl]piperidin-4-yl}indoline] | 41.9 nM | 17.8 nM
18 | O=C1OCCN1Cc1ccc2c(c1)N(C1CCN(CCc3ccc(F)cc3)CC1)CC2 [Example 208, 1-[1-(4-fluorophenethyl)piperidin-4-yl]-6-(2-oxazolidon-3-yl)methylindoline] | 2.33 nM | 1.05 nM
19 | OCCc1ccc(OCCCN2CCC(N3CCc4ccccc43)CC2)cc1 [Example 71, 1-{1-[3-(4-hydroxyethylphenoxy)propyl]piperidin-4-yl}indoline] | 25.4 nM | 28.2 nM
20 | COc1cccc2c1CCN2C1CCN(CCc2ccc(F)cc2)CC1 [Example 105, 1-[1-(4-fluorophenethyl)piperidin-4-yl]-4-methoxyindoline] | > 200 nM | 17.4 nM

Row | SMILES | Ki (serotonin 1A receptor) | Ki (serotonin 2 receptor)
21 | CCN1CCN(C2CCc3ccc(OC)cc32)CC1 (centres unmarked) [Example 251, 1-(4-ethylpiperazin-1-yl)-6-methoxyindan Hydrochloride] | 58.5 nM | > 200 nM
22 | COc1ccc(CCN2CCC(N3CCc4ccc(F)cc43)CC2)cc1 [Example 229, 1-[1-(4-methoxyphenethyl)piperidin-4-yl]-6-fluoroindoline] | 2.5 nM | > 200 nM
23 | CCN1CCC(N2CCc3ccc(NS(=O)(=O)c4ccc(F)cc4)cc32)CC1 [Example 238, 1-(1-ethylpiperidin-4-yl)-6-(4-fluorobenzenesulfonylamino)indoline] | 86.6 nM | > 200 nM
24 | Oc1ccc(CCN2CCC(N3CCc4ccccc43)CC2)cc1 [Example 20, 1-[1-(4-hydroxyphenethyl)piperidin-4-yl]indoline] | 15.2 nM | 0.22 nM
25 | Fc1ccccc1CCN1CCC(N2CCc3ccccc32)CC1 [Example 7, 1-[1-(2-fluorophenethyl)piperidin-4-yl]indoline] | 34.3 nM | 12.8 nM
26 | CC(=O)N(C)Cc1ccc2c(c1)N(C1CCN(CCc3ccc(F)cc3)CC1)CC2 [Example 163, 1-[1-(4-fluorophenethyl)piperidin-4-yl]-6-N-methylacetamidomethylindoline] | 2.41 nM | 7.75 nM
27 | OC1(c2ccc3c(c2)N(C2CCN(CCc4ccc(F)cc4)CC2)CC3)CCCC1 [Example 141, 1-[1-(4-fluorophenethyl)piperidin-4-yl]-6-(1-hydroxycyclopentyl)indoline] | 3.03 nM | 343 nM
28 | NCc1ccc2c(c1)N(C1CCN(CCc3ccc(F)cc3)CC1)CC2 [Example 132, 1-[1-(4-fluorophenethyl)piperidin-4-yl]-6-aminomethylindoline] | 2.08 nM | 14.3 nM
29 | CCC(O)c1ccc2c(c1)N(C1CCN(CCc3ccc(F)cc3)CC1)CC2 (centres unmarked) [Example 138, 1-[1-(4-fluorophenethyl)piperidin-4-yl]-6-(1-hydroxypropyl)indoline] | 1.98 nM | 5.93 nM
30 | OC[C@H]1CN(CCc2ccc(F)cc2)CC[C@@H]1N1CCc2ccccc21 (relative stereo) [Example 82, trans-1-[1-(4-fluorophenethyl)-3-hydroxymethylpiperidin-4-yl]indoline] | 71.2 nM | 5.3 nM
31 | NC(=O)NCc1ccc2c(c1)N(C1CCN(CCc3ccc(F)cc3)CC1)CC2 [Example 161, 1-[1-(4-fluorophenethyl)piperidin-4-yl]-6-ureidomethylindoline] | 3.23 nM | 0.43 nM
32 | CN(C)c1ccc(C(O)c2ccc3c(c2)N(C2CCN(CCc4ccc(F)cc4)CC2)CC3)cn1 (centres unmarked) [Example 191, 1-[1-(4-fluorophenethyl)piperidin-4-yl]-6-[1-hydroxy-1-(2-dimethylaminopyridin-5-yl)methyl]indoline] | 29.1 nM | 0.32 nM
33 | COc1cc2c(cc1Cl)CCN2C1CCN(CCc2ccc(F)cc2)CC1 [Example 219, 1-[1-(4-fluorophenethyl)piperidin-4-yl]-5-chloro-6-methoxyindoline] | 19.6 nM | 30.9 nM
34 | CS(=O)(=O)c1ccc(CCN2CCC(N3CCc4ccccc43)CC2)cc1 [Example 28, 1-[1-(4-methanesulfonylphenethyl)piperidin-4-yl]indoline] | 46.9 nM | 8.1 nM
35 | CCNc1ccc2c(c1)N(C1CCN(CCc3ccc(F)cc3)CC1)CC2 [Example 112, 1-[1-(4-fluorophenethyl)piperidin-4-yl]-6-ethylaminoindoline] | 3.2 nM | 165 nM
36 | CS(=O)(=O)Nc1cc2c(cc1Cl)CCN2C1CCN(CCc2ccc(F)cc2)CC1 [Example 218, 1-[1-(4-fluorophenethyl)piperidin-4-yl]-5-chloro-6-methanesulfonylaminoindoline] | 4.5 nM | 11.7 nM
37 | Fc1ccc(CCN2CCC(N3CCc4ccc(Cl)nc43)CC2)cc1 [Example 259, 1-[1-(4-fluorophenethyl)piperidin-4-yl]-6-chloro-7-azaindoline] | 0.6 nM | 5.9 nM
38 | OC[C@@H]1CN(CCc2ccc(F)cc2)CC[C@@H]1N1CCc2ccccc21 (relative stereo) [Example 81, cis-1-[1-(4-fluorophenethyl)-3-hydroxymethylpiperidin-4-yl]indoline] | 44.3 nM | 
39 | O=C(Cc1ccc2c(c1)N(C1CCN(CCc3ccc(F)cc3)CC1)CC2)NC1CC1 [Example 154, 1-[1-(4-fluorophenethyl)piperidin-4-yl]-6-(cyclopropylcarbamoylmethyl)indoline] | 6.52 nM | 
40 | COc1ccc2c(c1)CCN2C1CCN(CCc2ccc(F)cc2)CC1 [Example 99, 1-[1-(4-fluorophenethyl)piperidin-4-yl]-5-methoxyindoline] |  | 8.7 nM

— US6579881B2 (Eisai Co., Ltd., priority 1997, dated 2003)
